For this assay, the system named is HIV-IIIb. Kind of assay: Test A: Antiviral Assay in MT4 Cells. Type of assay: cell-based. The conditions noted are these: Human immunodeficiency virus 1, IIIB, MT4, 120 h, Table 2; MT-4 cells infected with HIV-IIIb, 5 days of incubation, CellTiter-Glo; read-out: EC50. An outline of the steps:
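Read-out: CellTiter-Glo chemiluminescence after 5-day incubation at 37 °C. Compounds tested as 3-fold serial dilutions (10 concentrations, quadruplicate) in RPMI 1640 with 10% FBS, on MT-4 cells pre-infected at 37 °C with HIV-IIIb at 0.004 m.o.i.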

Broadly, the EC50 is the concentration at which the effect is half-maximal. As to `Cc1cc2nc(-c3ccc4c(cnn4C)n3)sc2c(-c2ccc(Cl)cc2)c1[C@H](OC(C)(C)C)C(=O)O` [Compound 367], the EC50 worked out at 6 nM. `Cc1cc2nc(-c3ccnc(-c4cc5cn(C)nc5cn4)c3)sc2c(-c2ccc(Cl)cc2)c1[C@H](OC(C)(C)C)C(=O)O` [Compound 368]: the EC50 worked out at 5 nM. For the molecule `Cc1cc2nc(-c3ccnc(-c4cc5cnn(C)c5cn4)c3)sc2c(-c2ccc(Cl)cc2)c1[C@H](OC(C)(C)C)C(=O)O` [Compound 369], the EC50 amounted to 8 nM. With `Cc1cc2nc(-c3ccnc(-c4ccc5nn(C)cc5n4)c3)sc2c(-c2ccc(Cl)cc2)c1[C@H](OC(C)(C)C)C(=O)O` [Compound 370], the EC50 was determined as 4 nM. Regarding `Cc1cc2nc(-c3ccnc(-c4ccc5nn(C6COC6)cc5c4)c3)sc2c(-c2ccc(Cl)cc2)c1[C@H](OC(C)(C)C)C(=O)O` [Compound 371], the half-maximal effective concentration (EC50) stood at 7 nM. On to `Cc1cc2nc(-c3ccnc(-c4ccc5c(cnn5C5COC5)c4)c3)sc2c(-c2ccc(Cl)cc2)c1[C@H](OC(C)(C)C)C(=O)O` [Compound 372], for which the EC50 stood at 7 nM. In the case of `CCCn1ncc2cc(-c3cc(-c4nc5cc(C)c([C@H](OC(C)(C)C)C(=O)O)c(-c6ccc(Cl)cc6)c5s4)ccn3)ccc21` [Compound 373] it was 37 nM; in that of `Cc1cc2nc(-c3ccnc(-c4ccc5c(cnn5C(C)C)c4)c3)sc2c(-c2ccc(Cl)cc2)c1[C@H](OC(C)(C)C)C(=O)O` [Compound 374], 45 nM; in that of `Cc1cc2nc(-c3cc(-c4ccc5c(cnn5C)c4)ccn3)sc2c(-c2ccc(Cl)cc2)c1[C@H](OC(C)(C)C)C(=O)O` [Compound 375], 228 nM. As to `Cc1cc2nc(-c3ccnc(-c4cnn(C)c4C)c3)sc2c(-c2ccc(Cl)cc2)c1[C@H](OC(C)(C)C)C(=O)O` [Compound 376], the EC50 came to 19 nM. In the case of `Cc1cc2nc(-c3cnc4c(c3)c(N3CCN(C)CC3)cn4C)sc2c(-c2ccc(Cl)cc2)c1[C@H](OC(C)(C)C)C(=O)O` [Compound 377] it was 32 nM.

In the case of `Cc1cc2nc(-c3cnc4c(c3)c(C3=CCN(C)CC3)cn4C)sc2c(-c2ccc(Cl)cc2)c1[C@H](OC(C)(C)C)C(=O)O` [Compound 378], the EC50 is 51 nM. In the case of `Cc1cc2cc(-c3nc4cc(C)c([C@H](OC(C)(C)C)C(=O)O)c(-c5ccc(Cl)cc5)c4s3)cnc2[nH]1` [Compound 379] it was 15 nM; in that of `Cc1cc2cc(-c3cc(-c4nc5cc(C)c([C@H](OC(C)(C)C)C(=O)O)c(-c6ccc(Cl)cc6)c5s4)ccn3)cnc2[nH]1` [Compound 380], 25 nM; in that of `Cc1cc2nc(-c3cn(C)c4ncc(F)cc34)sc2c(-c2ccc(Cl)cc2)c1[C@H](OC(C)(C)C)C(=O)O` [Compound 381], 47 nM. Regarding `Cc1cc2nc(-c3ccnc(-c4cn(C)c5ncc(F)cc45)c3)sc2c(-c2ccc(Cl)cc2)c1[C@H](OC(C)(C)C)C(=O)O` [Compound 382], the 50% effective concentration (EC50) was found to be 91 nM.

`Cc1cc2nc(-c3ccnc(-c4ccc5c(c4)c(N)nn5C)c3)sc2c(-c2ccc(Cl)cc2)c1[C@H](OC(C)(C)C)C(=O)O` [Compound 383]: the EC50 is 18 nM. Turning to `Cc1cc2nc(C3CC=Cc4nn(C)cc43)sc2c(-c2ccc(Cl)cc2)c1[C@H](OC(C)(C)C)C(=O)O` (stereo partly drawn) [Compound 384], the EC50 turned out to be 332 nM. Consider `Cc1cnc2n(C)cc(-c3cc(-c4nc5cc(C)c([C@H](OC(C)(C)C)C(=O)O)c(-c6ccc(Cl)cc6)c5s4)ccn3)cc1-2` [Compound 385], for which the EC50 turned out to be 143 nM. Consider `Cc1cc2nc(-c3ccnc(-c4cnc5c(c4)c(C)cn5C)c3)sc2c(-c2ccc(Cl)cc2)c1[C@H](OC(C)(C)C)C(=O)O` [Compound 386], for which the EC50 stood at 56 nM. Turning to `Cc1cc2nc(-c3cccc4c3cnn4C)sc2c(-c2ccc(Cl)cc2)c1[C@H](OC(C)(C)C)C(=O)O` [Compound 387], the EC50 is 530 nM. With `Cc1cc2nc(-c3cccc4c3OCC(=O)N4)sc2c(-c2ccc(Cl)cc2)c1[C@H](OC(C)(C)C)C(=O)O` [Compound 388], the EC50 is 28 nM. The figure for `Cc1cc2nc(-c3ccnc(-c4ccc5c(c4)OCC(=O)N5C)c3)sc2c(-c2ccc(Cl)cc2)c1[C@H](OC(C)(C)C)C(=O)O` [Compound 389] is 7 nM. As to `Cc1cc2nc(-c3ccnc(-c4cccc5c4OCC(=O)N5C)c3)sc2c(-c2ccc(Cl)cc2)c1[C@H](OC(C)(C)C)C(=O)O` [Compound 390], the EC50 stood at 9 nM. For `Cc1cc2nc(-c3ccnc(-c4ccc5c(c4)OCC(=O)N5)c3)sc2c(-c2ccc(Cl)cc2)c1[C@H](OC(C)(C)C)C(=O)O` [Compound 391], the EC50 was found to be 11 nM.

On to `Cc1cc2nc(-c3ccnc(-c4cccc5c4OCC(=O)N5)c3)sc2c(-c2ccc(Cl)cc2)c1[C@H](OC(C)(C)C)C(=O)O` [Compound 392], for which the EC50 turned out to be 27 nM. The figure for `Cc1cc2nc(-c3ccnc(-c4ccc5c(c4)N(C)C(=O)CO5)c3)sc2c(-c2ccc(Cl)cc2)c1[C@H](OC(C)(C)C)C(=O)O` [Compound 393] is 33 nM; for `Cc1cc2nc(-c3ccnc(-c4ccc5c(c4)NC(=O)CO5)c3)sc2c(-c2ccc(Cl)cc2)c1[C@H](OC(C)(C)C)C(=O)O` [Compound 394] it is 25 nM. Turning to `Cc1cc2nc(-c3cccc(-c4ccc5c(n4)N(C)CCO5)c3)sc2c(-c2ccc(Cl)cc2)c1[C@H](OC(C)(C)C)C(=O)O` [Compound 395], the EC50 stood at 61 nM. Take `Cc1cc2nc(-c3ccnc(-c4cnc5c(c4)OCCN5C)c3)sc2c(-c2ccc(Cl)cc2)c1[C@H](OC(C)(C)C)C(=O)O` [Compound 396]: the EC50 was 10 nM. In the case of `Cc1cc2nc(-c3ccnc(-c4ccc5c(c4)CCN5C)c3)sc2c(-c2ccc(Cl)cc2)c1[C@H](OC(C)(C)C)C(=O)O` [Compound 397], the EC50 came out at 32 nM. In the case of `Cc1cc2nc(-c3ccnc(-c4cccc5c4CCN5C)c3)sc2c(-c2ccc(Cl)cc2)c1[C@H](OC(C)(C)C)C(=O)O` [Compound 398] it was 36 nM; in that of `Cc1cc2nc(-c3ccnc(-c4ccc5c(c4)N(C)CC5)c3)sc2c(-c2ccc(Cl)cc2)c1[C@H](OC(C)(C)C)C(=O)O` [Compound 399], 43 nM; in that of `Cc1cc2nc(-c3ccnc(-c4ccc5c(c4)OCCN5C)c3)sc2c(-c2ccc(Cl)cc2)c1[C@H](OC(C)(C)C)C(=O)O` [Compound 400], 16 nM.

For the molecule `Cc1cc2nc(-c3ccnc(-c4ccc5c(c4)C(=O)N(C)CCO5)c3)sc2c(-c2ccc(Cl)cc2)c1[C@H](OC(C)(C)C)C(=O)O` [Compound 401], the EC50 came out at 23 nM. Regarding `COc1ncc(-c2cc(-c3nc4cc(C)c([C@H](OC(C)(C)C)C(=O)O)c(-c5ccc(Cl)cc5)c4s3)ccn2)cn1` [Compound 402], the EC50 is 35 nM.

Regarding `CCOc1ncc(-c2cc(-c3nc4cc(C)c([C@H](OC(C)(C)C)C(=O)O)c(-c5ccc(Cl)cc5)c4s3)ccn2)cn1` [Compound 403], the EC50 was 42 nM. The figure for `Cc1cc2nc(-c3ccnc(-c4ccc5c(c4)N(C)CCO5)c3)sc2c(-c2ccc(Cl)cc2)c1[C@H](OC(C)(C)C)C(=O)O` [Compound 404] is 41 nM. As to `Cc1cc2nc(-c3ccnc(-c4cnc5c(c4)ncn5C)c3)sc2c(-c2ccc(Cl)cc2)c1[C@H](OC(C)(C)C)C(=O)O` [Compound 405], the EC50 was determined as 37 nM. The figure for `Cc1cc2nc(-c3ccnc(-c4cnc5ncn(C)c5c4)c3)sc2c(-c2ccc(Cl)cc2)c1[C@H](OC(C)(C)C)C(=O)O` [Compound 406] is 149 nM. The figure for `Cc1cc2nc(-c3ccnc(-c4ccc5c(c4)nnn5C)c3)sc2c(-c2ccc(Cl)cc2)c1[C@H](OC(C)(C)C)C(=O)O` [Compound 407] is 14 nM; for `Cc1cc2nc(-c3ccnc(-c4cnn(C(C)(C)C)c4)c3)sc2c(-c2ccc(Cl)cc2)c1[C@H](OC(C)(C)C)C(=O)O` [Compound 408] it is 27 nM.

With `Cc1cc2nc(-c3ccc4c(c3)nc(C)n4C3CC3)sc2c(-c2ccc(Cl)cc2)c1[C@H](OC(C)(C)C)C(=O)O` [Compound 409], the EC50 worked out at 10 nM.

For the molecule `Cc1cc2nc(-c3ccc4c(c3)nc(C)n4C(C)C)sc2c(-c2ccc(Cl)cc2)c1[C@H](OC(C)(C)C)C(=O)O` [Compound 410], the EC50 worked out at 9 nM. Consider `Cc1cc2nc(-c3ccc4c(c3)nc(C(C)C)n4C)sc2c(-c2ccc(Cl)cc2)c1[C@H](OC(C)(C)C)C(=O)O` [Compound 411], for which the EC50 stood at 8 nM. `Cc1cc2nc(-c3ccc4nc(C)n(C5CCOCC5)c4c3)sc2c(-c2ccc(Cl)cc2)c1[C@H](OC(C)(C)C)C(=O)O` [Compound 412]: the EC50 is 16 nM. On to `Cc1cc2nc(-c3ccc4nc(C)n(C5CCN(C)CC5)c4c3)sc2c(-c2ccc(Cl)cc2)c1[C@H](OC(C)(C)C)C(=O)O` [Compound 413], for which the EC50 stood at 33 nM. Turning to `Cc1cc2nc(-c3ccc4ncn(C5CCN(C)CC5)c4c3)sc2c(-c2ccc(Cl)cc2)c1[C@H](OC(C)(C)C)C(=O)O` [Compound 414], the EC50 was found to be 32 nM.

For `Cc1cc2nc(-c3ccc4c(c3)ncn4C)sc2c(-c2ccc(Cl)cc2)c1[C@H](OC(C)(C)C)C(=O)O` [Compound 415], the EC50 came to 10 nM. As for `Cc1cc2nn(C)cc2cc1-c1cc(-c2nc3cc(C)c([C@H](OC(C)(C)C)C(=O)O)c(-c4ccc(Cl)cc4)c3s2)ccn1` [Compound 416], the EC50 was determined as 25 nM. The figure for `Cc1cc2nc(-c3ccnc(-c4ccc5c(cnn5C)c4C)c3)sc2c(-c2ccc(Cl)cc2)c1[C@H](OC(C)(C)C)C(=O)O` [Compound 417] is 18 nM; for `Cc1cc2nc(-c3ccnc(-c4ccc5nn(C)cc5c4C)c3)sc2c(-c2ccc(Cl)cc2)c1[C@H](OC(C)(C)C)C(=O)O` [Compound 418] it is 11 nM; for `Cc1cc2c(cnn2C)cc1-c1cc(-c2nc3cc(C)c([C@H](OC(C)(C)C)C(=O)O)c(-c4ccc(Cl)cc4)c3s2)ccn1` [Compound 419] it is 13 nM. As for `Cc1cc2[nH]ncc2cc1-c1cc(-c2nc3cc(C)c([C@H](OC(C)(C)C)C(=O)O)c(-c4ccc(Cl)cc4)c3s2)ccn1` [Compound 420], the EC50 stood at 14 nM.
